{"source": "paper PMC11304739", "about": "“Identification of novel bromodomain inhibitors of Trypanosoma cruzi bromodomain factor 2 (TcBDF2) using a fluorescence polarization-based high-throughput assay” (Antimicrobial Agents and Chemotherapy, 2024)", "key": {"[1]": {"target": "recombinant TcBD2 (Trypanosoma cruzi, UniProt A0A2V2V5V1)", "sequence (A0A2V2V5V1 entry or part of it)": "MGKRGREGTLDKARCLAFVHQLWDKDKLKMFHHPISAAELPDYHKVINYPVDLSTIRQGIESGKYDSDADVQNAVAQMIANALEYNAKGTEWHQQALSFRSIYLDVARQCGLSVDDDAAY", "assay": "Thermal shift / differential scanning fluorimetry (DSF)", "assay_type": "binding", "method": "Recombinant TcBD2 was buffered in 10 mM HEPES, pH 7.5, and 300 mM NaCl and assayed in a 96-well plate at a final concentration of 5 µM in a 25-µL volume. Compounds were added at a final concentration between 0.1 and 50 µM to calculate dissociation constants. SYPRO Orange was added as a fluorescence probe at a dilution of 1:10,000. Excitation and emission filters for the SYPRO Orange dye were set to 465 and 590 nm, respectively. The temperature was raised with a step of 2°C per minute from 25°C to 96°C, and fluorescence readings were taken at each interval in a real-time Bio-Rad Opus CFX. Data were analyzed as previously described ([22]).\nFig 3 Kd calculation using DSF. Six concentrations of each compound (compounds named 1 to 7 indicated on top of each graph) were used (from 0.1 to 50 µM), and the melting temperatures of TcBD2 with each concentration of compound obtained were used to calculate the Kds. DMSO was used as a control sample. All thermal shift assays were performed at least in triplicate with reproducibility of parameters within ±10%. The change of melting temperature versus the log of the ligand concentration was plotted and fitted as described in the Materials and Methods section."}, "[2]": {"tested_on": "TbBDF3", "parameters": "method as in PMID 29025975", "settings": "cited from earlier work"}, "[3]": {"target": "BD of TbBDF2", "parameters": "method as in PMID 29025975", "settings": "ITC; cited from earlier work"}, "[4]": {"tested_on": "first BD from TbBDF5", "parameters": "method as in PMID 29025975", "settings": "cited from earlier work"}, "[5]": {"tested_on": "procyclic T. brucei", "parameters": "method as in PMID 29025975", "settings": "growth of procyclic T. brucei; cited from earlier work"}, "[6]": {"target": "second BD of TbBDF5", "parameters": "method as in PMID 29025975", "settings": "ITC; cited from earlier work"}, "[7]": {"tested_on": "Toxoplasma tachyzoites infecting HFF cells", "parameters": "method as in PMID 32119930", "settings": "cited from earlier work"}, "[8]": {"tested_on": "LdBDF5", "parameters": "method as in PMID 37906637", "settings": "different affinities for first or second BD; cited from earlier work"}, "[9]": {"target": "LdBD5.1", "parameters": "method as in PMID 37906637", "settings": "cited from earlier work"}, "[10]": {"tested_on": "promastigotes from Leishmania mexicana", "parameters": "method as in PMID 37906637", "settings": "cited from earlier work"}, "[11]": {"tested_on": "promastigotes from L. donovani", "parameters": "method as in PMID 37906637", "settings": "cited from earlier work"}, "[12]": {"tested_on": "asexual form of Plasmodium falciparum", "parameters": "method as in PMID 29631126", "settings": "cited from earlier work"}, "[13]": {"tested_on": "TcBDF3", "parameters": "method as in PMID 27007774, PMID 35482332", "settings": "cited from earlier work"}, "[14]": {"tested_on": "TcBDF2", "parameters": "method as in PMID 27007774, PMID 35482332", "settings": "cited from earlier work"}, "[15]": {"tested_on": "Dm28c epimastigotes", "settings": "cited from earlier work"}, "[16]": {"tested_on": "T. cruzi Dm28c epimastigotes expressing beta-galactosidase", "assay": "Beta-galactosidase expressing parasite assay (epimastigotes)", "assay_type": "cell-based", "settings": "Trypanosoma cruzi, 72 h", "method": "T. cruzi Dm28c which expresses the Escherichia coli LacZ gene was used ([31][–][33]). Epimastigotes were incubated with the compounds (50, 25, 12.5, 6.25, and 3.125 µM). After 72 hours of treatment, the assays were developed by the addition of Chlorophenol red-β-D-galactopyranoside (100 µM final concentration) and Nonidet P-40 (0.1% final concentration). Plates were incubated for 2 to 4 hours at 37°C. Wells with β-galactosidase activity turned the media from yellow to red, and this was quantitated by absorbance at 595 nm using a Synergy HTX multi-detection microplate reader as reported previously ([31]). Normalized survival percentage was plotted against concentrations on Prism 9.0 GraphPad software. DMSO 50% was used as the 0% survival baseline. Each concentration was assayed in triplicates.\nFig 4 Trypanocidal effect on epimastigotes expressing beta-galactosidase. Epimastigotes were incubated for 72 hours with each compound (named 1 to 6 and indicated on top of each graph) at five concentrations (3.12 to 50 µM). Beta-galactosidase activity was measured, and normalized survival was plotted vs. log concentration. For IC50 calculation of iBET151 and Benznidazole (BZN) (used as positive controls), six concentrations (from 1.56 to 100 µM) were plotted and the curves were fitted using GraphPad Prism 9.0 [non-linear regression: log(inhibitor) vs. response -- Variable slope (four parameters)]. […]"}, "[17]": {"target": "TbBDF3", "parameters": "method as in PMID 26646171, PMID 35642518", "settings": "cited from earlier work"}, "[18]": {"target": "TbBDF2", "parameters": "method as in PMID 26646171, PMID 35642518", "settings": "cited from earlier work"}, "[19]": {"settings": "second round of experiments, six concentrations, read-out: IC50 (Figure S3, Kd calculation using DSF, second round of experiments)"}, "[20]": {"settings": "thermal shift, compounds 0.1 to 50 µM, 5 µM TcBD2, read-out: Kd ± SD"}, "[21]": {"settings": "read-out: IC50 against Dm28c epimastigotes"}}, "note": "Read-outs that look alike come from different tables or passages of the source."}
{"smiles": "CCn1nnc2c(N3CC[C@H](N)C3)nc(C)nc21", "note": "[Compound 2]", "values": [{"measurement": "Kd", "setting": "[1]; [19]", "value": 1550, "unit": "nM"}, {"measurement": "Kd", "setting": "[1]; [20]", "value": "1330 ± 220", "unit": "nM"}]}
{"smiles": "CC(=O)Nc1nc(C)c(S(=O)(=O)Nc2cccc3nnc(C)cc23)s1", "note": "[Compound 7]", "values": [{"measurement": "Kd", "setting": "[1]; [19]", "value": 3150, "unit": "nM"}, {"measurement": "Kd", "setting": "[1]; [20]", "value": "2810 ± 310", "unit": "nM"}]}
{"smiles": "CCCOc1ccn2c(C(C)=O)cc(-c3ccccc3S(C)(=O)=O)c2c1", "note": "[GSK2801]", "values": [{"measurement": "binding to TbBDF3", "setting": "[2]", "value": "does not bind"}, {"measurement": "Kd", "setting": "[3]", "value": 15, "unit": "µM"}, {"measurement": "binding to first BD from TbBDF5", "setting": "[4]", "value": "does not bind"}, {"measurement": "IC50", "setting": "[5]", "value": 1370, "unit": "nM"}, {"measurement": "Kd", "setting": "[6]", "value": 83, "unit": "µM"}]}
{"smiles": "Cc1cc(C(=O)NC2CCc3nccn3C2)c2c(C)noc2n1", "note": "(stereo not shown) [Compound 3]", "values": [{"measurement": "Kd", "setting": "[1]; [19]", "value": 2140, "unit": "nM"}, {"measurement": "Kd", "setting": "[1]; [20]", "value": "2410 ± 320", "unit": "nM"}]}
{"smiles": "Cc1nnc2c3ccccc3c(N[C@@H](C)[C@H](c3ccccc3)N(C)C)nn12", "note": "[L-Moses]", "values": [{"measurement": "IC50", "setting": "[7]", "value": "~600", "unit": "nM"}]}
{"smiles": "Cc1cc2c(NC(=O)c3ccccc3C(=O)O)cccc2nn1", "note": "[Compound 6]", "values": [{"measurement": "Kd", "setting": "[1]; [19]", "value": 3110, "unit": "nM"}, {"measurement": "Kd", "setting": "[1]; [20]", "value": "3310 ± 260", "unit": "nM"}]}
{"smiles": "CCn1cc(-c2cccc(C(F)(F)F)c2)c2sc(C(=N)NC3CCS(=O)(=O)CC3)cc2c1=O", "note": "[I-BRD9]", "values": [{"measurement": "binding to LdBDF5", "setting": "[8]", "value": "binds"}]}
{"smiles": "COc1ccc(CCc2nc3cc(-c4c(C)noc4C)ccc3n2C[C@H](C)N2CCOCC2)cc1Cl", "note": "[SGC-CBP30]", "values": [{"measurement": "binding to LdBDF5", "setting": "[8]", "value": "binds"}, {"measurement": "Kd", "setting": "[9]", "value": 281, "unit": "nM"}, {"measurement": "IC50", "setting": "[10]", "value": 7.16, "unit": "µM"}, {"measurement": "IC50", "setting": "[11]", "value": 6.16, "unit": "µM"}, {"measurement": "selectivity index", "setting": "[12]; calculated using a human HEK 293 cell line", "value": "around 7"}, {"measurement": "IC50", "setting": "[12]; in vitro", "value": 3.2, "unit": "µM"}]}
{"smiles": "CCOC(=O)Nc1cc(-c2ccc(C)c(NS(C)(=O)=O)c2)nn2c(C)nnc12", "note": "[BSP, Bromosporine]", "values": [{"measurement": "binding to LdBDF5", "setting": "[8]", "value": "binds"}, {"measurement": "binding to TcBDF3", "setting": "[13]", "value": "bind"}, {"measurement": "binding to TcBDF2", "setting": "[14]", "value": "bind"}, {"measurement": "IC50", "setting": "[15]; read-out: IC50 against parasites", "value": "> 50", "unit": "µM"}]}
{"smiles": "O=C(Cn1ccnc1[N+](=O)[O-])NCc1ccccc1", "note": "[BZN, Benznidazole]", "values": [{"measurement": "IC50", "setting": "[16]", "value": 19.8, "unit": "µM"}]}
{"smiles": "COc1cc2c(cc1-c1c(C)noc1C)ncc1[nH]c(=O)n([C@H](C)c3ccccn3)c12", "note": "[iBET-151]", "values": [{"measurement": "IC50", "setting": "[16]", "value": 7.75, "unit": "µM"}, {"measurement": "binding to TcBDF3", "setting": "[13]", "value": "bind"}, {"measurement": "binding to TcBDF2", "setting": "[14]", "value": "bind"}, {"measurement": "IC50", "setting": "[15]; [21]", "value": 6.35, "unit": "µM"}, {"measurement": "Kd", "setting": "[17]", "value": 175, "unit": "µM"}, {"measurement": "Kd", "setting": "[18]", "value": 225, "unit": "µM"}]}
{"smiles": "Cc1cc2c(NS(=O)(=O)c3c(C)noc3C)cccc2nn1", "note": "[Compound 5]", "values": [{"measurement": "Kd", "setting": "[1]; [19]", "value": 3360, "unit": "nM"}, {"measurement": "Kd", "setting": "[1]; [20]", "value": "3520 ± 120", "unit": "nM"}]}
{"smiles": "CCn1nnc2c(N3CC[C@@H](N)C3)nc(C)nc21", "note": "[Compound 1]", "values": [{"measurement": "Kd", "setting": "[1]; [19]", "value": 1890, "unit": "nM"}, {"measurement": "Kd", "setting": "[1]; [20]", "value": "1910 ± 310", "unit": "nM"}]}
{"smiles": "Cc1cc2c(NC(=O)CC(C)(C)CC(=O)O)cccc2nn1", "note": "[Compound 4]", "values": [{"measurement": "Kd", "setting": "[1]; [19]", "value": 1920, "unit": "nM"}, {"measurement": "Kd", "setting": "[1]; [20]", "value": "1580 ± 420", "unit": "nM"}]}
{"smiles": "Cc1sc2c(c1C)C(c1ccc(Cl)cc1)=N[C@@H](CC(=O)OC(C)(C)C)c1nnc(C)n1-2", "note": "[JQ1(+)]", "values": [{"measurement": "binding to TcBDF3", "setting": "[13]", "value": "binds"}, {"measurement": "binding to TcBDF2", "setting": "[14]", "value": "does not interact"}, {"measurement": "IC50", "setting": "[15]; [21]", "value": 7.14, "unit": "µM"}, {"measurement": "binding to TbBDF3", "setting": "[17]", "value": "do not bind at all"}, {"measurement": "binding to TbBDF2", "setting": "[18]", "value": "do not bind at all"}]}
